Reference: BindingDB's records for doi:10.1124/jpet.102.034249 (Sanofi-Synthelabo Recherche, 2002)

Columns and labels:
[1] = target: T1, 5-hydroxytryptamine receptor 1A (Homo sapiens, UniProt P08908)
T1 sequence (P08908 whole entry): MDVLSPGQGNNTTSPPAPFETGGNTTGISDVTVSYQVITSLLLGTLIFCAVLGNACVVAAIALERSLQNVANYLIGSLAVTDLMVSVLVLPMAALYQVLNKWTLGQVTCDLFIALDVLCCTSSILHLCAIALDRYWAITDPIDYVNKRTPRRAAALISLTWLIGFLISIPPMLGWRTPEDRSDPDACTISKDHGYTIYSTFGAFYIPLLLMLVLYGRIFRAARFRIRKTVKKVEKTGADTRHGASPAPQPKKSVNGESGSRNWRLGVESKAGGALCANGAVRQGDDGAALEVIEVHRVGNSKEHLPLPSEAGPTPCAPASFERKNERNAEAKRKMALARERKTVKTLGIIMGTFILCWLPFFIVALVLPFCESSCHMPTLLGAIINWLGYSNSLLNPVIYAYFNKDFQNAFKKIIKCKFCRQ

[2] = target: 5-hydroxytryptamine receptor 2A (Homo sapiens, UniProt P28223)
[3] = target: 5-hydroxytryptamine receptor 6 (Homo sapiens, UniProt P50406)
[4] = target: 5-hydroxytryptamine receptor 1B (Homo sapiens, UniProt P28222)
[5] = target: 5-hydroxytryptamine receptor 1D (Homo sapiens, UniProt P28221)
[6] = target: 5-hydroxytryptamine receptor 2B (Homo sapiens, UniProt P41595)
[7] = target: 5-hydroxytryptamine receptor 7 (Homo sapiens, UniProt P34969)
[8] = target: T2, 5-hydroxytryptamine receptor 3A (Homo sapiens, UniProt P46098)
T2 sequence (P46098 whole entry): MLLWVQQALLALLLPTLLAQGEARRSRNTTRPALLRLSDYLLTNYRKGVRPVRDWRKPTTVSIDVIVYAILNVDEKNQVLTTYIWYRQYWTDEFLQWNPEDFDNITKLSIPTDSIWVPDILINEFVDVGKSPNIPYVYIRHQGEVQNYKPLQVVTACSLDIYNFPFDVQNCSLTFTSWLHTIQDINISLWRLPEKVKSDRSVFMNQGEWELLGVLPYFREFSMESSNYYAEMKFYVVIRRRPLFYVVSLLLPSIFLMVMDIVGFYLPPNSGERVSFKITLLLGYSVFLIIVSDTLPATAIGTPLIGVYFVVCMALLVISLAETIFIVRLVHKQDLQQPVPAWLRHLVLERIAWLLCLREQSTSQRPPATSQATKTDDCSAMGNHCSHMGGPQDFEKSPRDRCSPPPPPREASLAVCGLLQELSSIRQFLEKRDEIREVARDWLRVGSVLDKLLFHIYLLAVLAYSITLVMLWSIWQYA

[9] = target: 5-hydroxytryptamine receptor 5A (Homo sapiens, UniProt P47898)
[10] = target: 5-hydroxytryptamine receptor 4 (Homo sapiens, UniProt Q13639)
[11] = target: T3, 5-hydroxytryptamine receptor 2C (Homo sapiens, UniProt P28335)
T3 sequence (P28335 whole entry): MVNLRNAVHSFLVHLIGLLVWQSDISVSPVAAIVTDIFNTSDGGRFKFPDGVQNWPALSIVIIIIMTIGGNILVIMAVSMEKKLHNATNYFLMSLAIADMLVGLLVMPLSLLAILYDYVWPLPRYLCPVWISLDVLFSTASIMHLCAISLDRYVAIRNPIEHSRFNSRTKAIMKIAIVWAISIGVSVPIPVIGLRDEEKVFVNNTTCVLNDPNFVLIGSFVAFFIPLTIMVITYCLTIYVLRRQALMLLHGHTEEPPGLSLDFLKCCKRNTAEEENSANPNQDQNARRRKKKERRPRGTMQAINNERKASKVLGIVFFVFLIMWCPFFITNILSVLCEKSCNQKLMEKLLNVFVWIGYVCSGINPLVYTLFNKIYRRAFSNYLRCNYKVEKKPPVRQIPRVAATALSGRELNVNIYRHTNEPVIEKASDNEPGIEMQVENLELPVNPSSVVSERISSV

Chain of 5-hydroxytryptamine receptor 2B (P41595 whole entry): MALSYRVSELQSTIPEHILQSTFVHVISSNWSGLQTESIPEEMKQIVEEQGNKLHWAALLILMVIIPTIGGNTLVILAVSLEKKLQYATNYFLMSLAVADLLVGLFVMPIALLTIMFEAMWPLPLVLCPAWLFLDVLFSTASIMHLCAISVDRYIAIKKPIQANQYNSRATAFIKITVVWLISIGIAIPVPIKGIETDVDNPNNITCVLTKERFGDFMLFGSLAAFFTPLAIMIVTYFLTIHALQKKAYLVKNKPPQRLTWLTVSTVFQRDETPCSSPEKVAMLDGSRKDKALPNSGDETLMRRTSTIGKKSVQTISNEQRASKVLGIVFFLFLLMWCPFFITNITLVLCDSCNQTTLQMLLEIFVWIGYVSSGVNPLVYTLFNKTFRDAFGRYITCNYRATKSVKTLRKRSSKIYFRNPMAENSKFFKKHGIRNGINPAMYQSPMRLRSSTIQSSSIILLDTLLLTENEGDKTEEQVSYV
Chain of 5-hydroxytryptamine receptor 5A (P47898 whole entry): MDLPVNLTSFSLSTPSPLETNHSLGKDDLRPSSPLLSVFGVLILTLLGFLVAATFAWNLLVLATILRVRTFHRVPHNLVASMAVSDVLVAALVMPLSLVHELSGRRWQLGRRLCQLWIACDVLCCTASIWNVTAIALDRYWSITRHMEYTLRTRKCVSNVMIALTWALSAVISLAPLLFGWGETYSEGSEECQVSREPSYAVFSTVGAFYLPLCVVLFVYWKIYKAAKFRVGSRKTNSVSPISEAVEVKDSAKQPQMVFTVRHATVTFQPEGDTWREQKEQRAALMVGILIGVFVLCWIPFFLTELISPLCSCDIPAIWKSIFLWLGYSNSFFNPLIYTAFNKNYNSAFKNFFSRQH
Chain of 5-hydroxytryptamine receptor 7 (P34969 whole entry): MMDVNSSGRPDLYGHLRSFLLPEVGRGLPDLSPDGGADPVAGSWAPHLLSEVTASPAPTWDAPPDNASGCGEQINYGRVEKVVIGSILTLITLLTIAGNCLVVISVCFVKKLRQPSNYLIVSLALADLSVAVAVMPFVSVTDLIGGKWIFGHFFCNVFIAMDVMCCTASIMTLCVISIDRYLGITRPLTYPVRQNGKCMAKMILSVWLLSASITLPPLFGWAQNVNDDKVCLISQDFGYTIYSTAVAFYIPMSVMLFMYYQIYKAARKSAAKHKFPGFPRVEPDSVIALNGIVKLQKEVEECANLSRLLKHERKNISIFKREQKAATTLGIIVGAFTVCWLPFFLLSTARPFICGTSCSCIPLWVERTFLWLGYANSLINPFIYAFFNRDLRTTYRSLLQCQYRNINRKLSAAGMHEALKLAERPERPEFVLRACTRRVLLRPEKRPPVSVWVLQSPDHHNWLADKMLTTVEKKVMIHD
Chain of 5-hydroxytryptamine receptor 4 (Q13639 whole entry): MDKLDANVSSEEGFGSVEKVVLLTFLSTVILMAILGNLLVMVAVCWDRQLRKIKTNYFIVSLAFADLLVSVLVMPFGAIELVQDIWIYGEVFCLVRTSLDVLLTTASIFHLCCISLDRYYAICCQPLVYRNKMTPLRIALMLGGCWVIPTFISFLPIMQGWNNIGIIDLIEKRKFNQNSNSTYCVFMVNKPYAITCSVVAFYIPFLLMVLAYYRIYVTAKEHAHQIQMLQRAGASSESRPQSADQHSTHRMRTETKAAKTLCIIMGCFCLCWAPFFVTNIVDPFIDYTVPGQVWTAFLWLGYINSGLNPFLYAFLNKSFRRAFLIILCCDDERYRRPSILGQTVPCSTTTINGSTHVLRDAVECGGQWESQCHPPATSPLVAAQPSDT
Chain of 5-hydroxytryptamine receptor 6 (P50406 whole entry): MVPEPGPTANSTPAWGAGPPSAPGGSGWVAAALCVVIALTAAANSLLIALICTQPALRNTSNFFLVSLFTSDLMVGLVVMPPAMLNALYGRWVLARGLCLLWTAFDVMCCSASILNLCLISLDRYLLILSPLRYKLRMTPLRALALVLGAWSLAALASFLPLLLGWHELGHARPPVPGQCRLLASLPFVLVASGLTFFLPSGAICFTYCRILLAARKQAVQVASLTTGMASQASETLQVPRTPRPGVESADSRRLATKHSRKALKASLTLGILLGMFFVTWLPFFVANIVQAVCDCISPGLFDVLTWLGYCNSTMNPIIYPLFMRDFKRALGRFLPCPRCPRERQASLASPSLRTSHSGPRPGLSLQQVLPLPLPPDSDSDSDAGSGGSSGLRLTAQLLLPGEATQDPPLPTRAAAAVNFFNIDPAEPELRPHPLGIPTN
Chain of 5-hydroxytryptamine receptor 2A (P28223 whole entry): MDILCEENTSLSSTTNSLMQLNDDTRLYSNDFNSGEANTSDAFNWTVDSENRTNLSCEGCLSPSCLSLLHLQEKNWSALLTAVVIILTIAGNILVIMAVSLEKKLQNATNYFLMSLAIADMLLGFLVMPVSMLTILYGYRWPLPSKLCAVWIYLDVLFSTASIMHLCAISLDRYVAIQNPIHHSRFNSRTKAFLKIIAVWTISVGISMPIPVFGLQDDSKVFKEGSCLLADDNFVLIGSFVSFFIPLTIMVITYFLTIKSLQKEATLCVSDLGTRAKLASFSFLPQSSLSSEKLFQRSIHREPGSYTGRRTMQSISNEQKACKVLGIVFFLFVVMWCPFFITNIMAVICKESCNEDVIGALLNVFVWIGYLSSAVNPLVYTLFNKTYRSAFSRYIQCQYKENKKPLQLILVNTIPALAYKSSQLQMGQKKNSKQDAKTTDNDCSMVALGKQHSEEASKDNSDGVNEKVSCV
Chain of 5-hydroxytryptamine receptor 1B (P28222 whole entry): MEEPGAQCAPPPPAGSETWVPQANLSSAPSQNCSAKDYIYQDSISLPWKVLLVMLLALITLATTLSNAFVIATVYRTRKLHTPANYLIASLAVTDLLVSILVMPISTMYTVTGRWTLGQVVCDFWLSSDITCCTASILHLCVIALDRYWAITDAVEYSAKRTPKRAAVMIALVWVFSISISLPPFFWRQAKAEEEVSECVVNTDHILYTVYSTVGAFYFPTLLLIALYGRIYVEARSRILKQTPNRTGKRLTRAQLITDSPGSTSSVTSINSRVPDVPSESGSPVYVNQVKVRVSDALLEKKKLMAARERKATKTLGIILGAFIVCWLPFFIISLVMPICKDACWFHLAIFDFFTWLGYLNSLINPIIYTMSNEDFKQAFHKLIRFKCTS
Chain of 5-hydroxytryptamine receptor 1D (P28221 whole entry): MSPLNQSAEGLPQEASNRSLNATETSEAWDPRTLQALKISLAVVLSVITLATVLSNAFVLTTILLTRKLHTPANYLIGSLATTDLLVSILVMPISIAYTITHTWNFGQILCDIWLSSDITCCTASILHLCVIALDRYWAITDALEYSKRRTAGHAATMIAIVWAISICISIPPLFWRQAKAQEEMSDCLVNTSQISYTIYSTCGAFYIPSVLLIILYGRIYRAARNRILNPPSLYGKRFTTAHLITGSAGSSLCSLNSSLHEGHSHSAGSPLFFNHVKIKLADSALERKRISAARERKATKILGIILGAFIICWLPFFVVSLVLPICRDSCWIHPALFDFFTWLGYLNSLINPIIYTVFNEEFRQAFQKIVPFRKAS

## Nc1c(Cl)cc(-c2nn(C3CCN(CCc4ccccc4)CC3)c(=O)o2)c2c1OCCO2 [SL65.0155]
[1]
  Ki: 1020 nM
[2]
  Ki: 1320 nM
[3]
  Ki: 2580 nM
[4]
  Ki: 5500 nM
[5]
  Ki: 7990 nM
[6]
  Ki: 1560 nM
[7]
  Ki: 3260 nM
[8]
  Ki: > 10000 nM
[9]
  Ki: > 10000 nM
[10]
  Ki: 0.6 nM
[11]
  Ki: 4780 nM
